# Patent US10639284B2, “Immunomodulator compounds” (CHEMOCENTRYX, INC., priority 2016, dated 2020)
# Target: human PD-L1 / Human PD-1 (Homo sapiens (Human), UniProt Q9NZQ7)
# Assay: Enzyme-Linked Immunosorbent Assay (ELISA), PD-1/PD-L1 binding
# Settings: Table 2; plate-coated human PD-L1, biotinylated human PD-1; read-out: ELISA IC50
# Experimental: Plates were coated with 1 μg/mL of human PD-L1 (obtained from R&D) in PBS overnight at 4° C. The wells were then blocked with PBS containing 2% BSA in PBS (W/V) with 0.05% TWEEN-20 for 1 hour at 37° C. The plates were washed 3 times with PBS/0.05% TWEEN-20 and the samples were diluted to 1:5 in dilution medium in the ELISA plates. Human PD-1 and biotin 0.3 μg/mL (ACRO Biosystems) were added and incubated for 1 hour at 37° C. then washed 3 times with PBS/0.05% TWEEN-20. A second block was added with PBS containing 2% BSA in PBS (W/V)/0.05% TWEEN-20 for 10 min at 37° C. and was washed 3 times with PBS/0.05% TWEEN-20. Streptavidin-HRP was added for 1 hour at 37° C. then washed 3 times with PBS/0.05% TWEEN-20. TMB substrate was added and reacted for 20 min at 37° C. A stop solution (2 N aqueous H2SO4) was added. The absorbance was read at 450 nm using a micro-plate spectrophotometer.
# Compounds in Table 2 and Table 3 were prepared by methods as described in the Examples, and evaluated according to the assay below.
# Chain of human PD-L1 / Human PD-1 (Q9NZQ7 19-239): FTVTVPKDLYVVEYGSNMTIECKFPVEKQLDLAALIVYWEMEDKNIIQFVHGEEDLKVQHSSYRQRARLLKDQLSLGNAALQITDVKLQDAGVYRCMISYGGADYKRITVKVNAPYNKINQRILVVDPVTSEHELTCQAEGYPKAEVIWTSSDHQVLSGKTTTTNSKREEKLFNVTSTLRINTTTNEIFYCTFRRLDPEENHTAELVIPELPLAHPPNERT
row,IC50,SMILES
1,500 to 20000 nM,Cc1cccc(-c2cccc3c2CC[C@@H]3Oc2cc(OCc3cncc(C#N)c3)c(CN[C@@H](CO)C(=O)O)cc2Cl)c1 [Example 2.012]
2,< 100 nM,O=C(O)[C@H](CO)NCc1cc(Cl)c(O[C@H]2CCc3c(-c4ccccc4F)cccc32)cc1OCc1cnc(Cl)nc1 [Example 2.084]
3,100 to 500 nM,C[C@H](NCc1cc(Cl)c(O[C@H]2CCc3c(-c4ccccc4F)cccc32)cc1OCc1cncc(C#N)c1)C(N)=O [Example 2.168]
4,100 to 500 nM,N#Cc1cncc(COc2cc(O[C@H]3CCc4c(-c5ccccc5F)cccc43)c(Cl)cc2CN2CC(O)(C(=O)O)C2)c1 [Example 2.018]
5,100 to 500 nM,COc1cccc(-c2cccc3c2CC[C@@H]3Oc2cc(OCc3cncc(C#N)c3)c(CN3CCC(O)CC3)cc2Cl)c1F [Example 2.052]
6,500 to 20000 nM,N#Cc1cncc(COc2cc(O[C@H]3CCc4c(-c5ccccc5F)cccc43)c(Cl)cc2CN[C@@H]2[C@@H]3CC[C@@H](C3)[C@@H]2C(=O)O)c1 [Example 2.174]
7,< 100 nM,N#Cc1cncc(COc2cc(O[C@H]3CCc4c(-c5ccccc5F)cccc43)c(Cl)cc2CN[C@@H](C(=O)O)c2ccccc2)c1 [Example 2.176]
8,500 to 20000 nM,CC(C)(O)CNCc1cc(Cl)c(O[C@H]2CCc3c(-c4ccccc4)cccc32)cc1OCc1cncc(C#N)c1 [Example 1.012]
9,< 100 nM,N#Cc1cncc(COc2cc(O[C@H]3CCc4c(-c5ccccc5Cl)cccc43)c(Cl)cc2CN[C@@H](CO)C(=O)O)c1 [Example 2.005]
10,< 100 nM,CC(CO)(NCc1cc(Cl)c(O[C@H]2CCc3c(-c4ccccc4F)cccc32)cc1OCc1cncc(C#N)c1)C(=O)O (some centres unmarked) [Example 2.152]
11,100 to 500 nM,CCCOc1cc(O[C@H]2CCc3c(-c4ccccc4F)cccc32)c(Cl)cc1CN[C@@H](CO)C(=O)O [Example 2.074]
12,500 to 20000 nM,COc1cccc(-c2cccc3c2CC[C@@H]3Oc2cc(OCc3cncc(C#N)c3)c(CNCc3noc(=O)[nH]3)cc2Cl)c1F [Example 2.054]
13,< 100 nM,N#Cc1cncc(COc2cc(O[C@H]3CCc4c(-c5ccccc5)cccc43)c(Cl)cc2CN[C@@H](CO)C(=O)O)c1 [Example 2.002]
14,< 100 nM,COc1cccc(-c2cccc3c2CC[C@@H]3Oc2cc(OCc3cncc(C#N)c3)c(CN3C[C@H](O)C[C@@H]3C(=O)O)cc2Cl)c1F [Example 2.073]
15,100 to 500 nM,N#Cc1cncc(COc2cc(OC3CCc4c(-c5ccccc5)cccc43)c(Cl)cc2CN2CC(O)C2)c1 (centres unmarked) [Example 1.007]
16,100 to 500 nM,CCOc1cc(O[C@H]2CCc3c(-c4ccccc4F)cccc32)c(Cl)cc1CN[C@H](C(=O)O)[C@@H](C)O [Example 2.158]
17,< 100 nM,N#Cc1cncc(-c2cc(O[C@H]3CCc4c(-c5ccccc5F)cccc43)c(Cl)cc2CN[C@@H](CO)C(=O)O)c1 [Example 2.115]
18,100 to 500 nM,COc1cccc(-c2cccc3c2CC[C@@H]3Oc2cc(OCc3cncc(C#N)c3)c(CN3CC(O)C3)cc2Cl)c1Cl [Example 2.072]
19,500 to 20000 nM,COc1cccc(-c2cccc3c2CC[C@@H]3Oc2cc(OCc3cncc(C#N)c3)c(CNCCS(N)(=O)=O)cc2Cl)c1F [Example 2.078]

row,IC50,SMILES
1,100 to 500 nM,CCOc1cc(O[C@H]2CCc3c(-c4ccccc4F)cccc32)c(Cl)cc1CN[C@@H](C)C(=O)O [Example 2.154]
2,100 to 500 nM,COc1cccc(F)c1-c1cccc2c1CC[C@@H]2Oc1cc(OCc2cncc(C#N)c2)c(CN[C@@H](CO)C(=O)O)cc1Cl [Example 2.105]
3,100 to 500 nM,N#Cc1cncc(COc2cc(O[C@H]3CCc4c(-c5ccccc5)cccc43)c(Cl)cc2CNCCn2nn[nH]c2=O)c1 [Example 1.010]
4,100 to 500 nM,N#Cc1cncc(COc2cc(O[C@H]3CCc4c(-c5ccccc5F)cccc43)c(Cl)cc2CN2CC3(CC(O)C3)C2)c1 [Example 2.119]
5,500 to 20000 nM,CC(C)OC(=O)[C@@H](NCc1cc(Cl)c(O[C@H]2CCc3c(-c4ccccc4F)cccc32)cc1OCc1cncc(C#N)c1)[C@@H](C)O [Example 2.169]
6,< 100 nM,COc1cc(O[C@H]2CCc3c(-c4cccc(OC)c4F)cccc32)c(Cl)cc1CN[C@@H](CO)C(=O)O [Example 2.040]
7,500 to 20000 nM,N#Cc1cncc(COc2cc(O[C@H]3CCc4c(-c5ccccc5)cccc43)c(Cl)cc2CNCc2ccn[nH]2)c1 [Example 1.015]
8,500 to 20000 nM,COc1cccc(-c2cccc3c2CC[C@@H]3Oc2cc(OCc3cncc(C#N)c3)c(CN3CCOCC3)cc2Cl)c1Cl [Example 2.082]
9,100 to 500 nM,C=CC(=O)NCCNCc1cc(Cl)c(O[C@H]2CCc3c(-c4ccccc4F)cccc32)cc1OCc1cncc(C#N)c1 [Example 2.137]
10,100 to 500 nM,C[C@H](NCc1cc(Cl)c(O[C@H]2CCc3c(-c4ccc5c(c4Cl)OCCO5)cccc32)cc1OCc1cncc(C#N)c1)C(=O)O [Example 2.163]
11,500 to 20000 nM,N#Cc1cncc(COc2cc(O[C@H]3CCc4c(-c5cc(C#N)ccc5F)cccc43)c(Cl)cc2CN[C@@H](CO)C(=O)O)c1 [Example 2.062]
12,500 to 20000 nM,CCOc1cc(O[C@H]2CCc3c(-c4ccc5c(c4F)OCCO5)cccc32)c(Cl)cc1CN1CCC(O)CC1 [Example 2.059]
13,< 100 nM,N#Cc1cncc(COc2cc(O[C@H]3CCc4c(-c5ccc6c(c5F)OCCO6)cccc43)c(Cl)cc2CN2CCC(O)CC2)c1 [Example 2.058]
14,100 to 500 nM,N#Cc1cncc(COc2cc(O[C@H]3CCc4c(-c5ccccc5F)cccc43)c(Cl)cc2CN[C@@H](C(=O)O)c2ccc(O)cc2)c1 [Example 2.175]
15,100 to 500 nM,COc1ccc(-c2cccc3c2CC[C@@H]3Oc2cc(OCc3cncc(C#N)c3)c(CN[C@@H](CO)C(=O)O)cc2Cl)c(F)c1 [Example 2.044]
16,100 to 500 nM,Cc1cccc(-c2cccc3c2CC[C@@H]3Oc2cc(OCc3cncc(C#N)c3)c(CN3CC(O)C3)cc2Cl)c1F [Example 2.076]
17,500 to 20000 nM,N#Cc1cncc(COc2cc(O[C@H]3CCc4c(-c5cccc(OC(F)(F)F)c5F)cccc43)c(Cl)cc2CN[C@@H](CO)C(=O)O)c1 [Example 2.069]
18,< 100 nM,N#Cc1cncc(COc2cc(O[C@@H]3c4cccc(-c5ccccc5F)c4C[C@H]3F)c(Cl)cc2CN[C@@H](CO)C(=O)O)c1 [Example 2.147]
19,500 to 20000 nM,COC(=O)c1cccc(COc2cc(O[C@H]3CCc4c(-c5ccccc5F)cccc43)c(Cl)cc2CN2CCC(O)CC2)c1 [Example 2.089]

# Same assay, conditions: Table 3; plate-coated human PD-L1, biotinylated human PD-1; read-out: ELISA IC50
row,IC50,SMILES
1,500 to 20000 nM,COC(=O)[C@H](CO)NC(C)c1cc(Cl)c(O[C@H]2CCc3c(-c4ccccc4F)cccc32)cc1OCc1cncc(C#N)c1 (some centres unmarked) [Example 3.109]
2,100 to 500 nM,N#Cc1cncc(COc2cc(O[C@H]3CCc4c(-c5ccccc5F)cccc43)c(Cl)cc2CNCCCN2CCN(CCO)CC2)c1 [Example 3.089]
3,< 100 nM,N#Cc1cc(C#N)cc(COc2cc(O[C@H]3CCc4c(-c5ccccc5)cccc43)c(Cl)cc2CN[C@@H](CO)C(=O)O)c1 [Example 3.022]
4,< 100 nM,C[C@@](CO)(NCc1cc(Cl)c(O[C@H]2CCc3c(-c4ccc5c(c4F)OCCO5)cccc32)cc1OCc1cc(C#N)cc(C#N)c1)C(=O)O [Example 3.005]
5,< 100 nM,N#Cc1cncc(COc2cc(O[C@H]3CCc4c(-c5ccc6c(c5F)OCCO6)cccc43)c(Cl)cc2CN[C@@H](CCO)C(=O)O)c1 [Example 3.034]
6,< 100 nM,N#Cc1cncc(COc2cc(O[C@H]3CCc4c(-c5ccccc5F)cccc43)c(Cl)cc2CNCc2c[nH]cn2)c1 [Example 3.059]
7,< 100 nM,CCN(CC)CCCC(C)NCc1cc(Cl)c(O[C@H]2CCc3c(-c4ccccc4F)cccc32)cc1OCc1cncc(C#N)c1 (some centres unmarked) [Example 3.074]
8,< 100 nM,N#Cc1cncc(COc2cc(O[C@H]3CCc4c(-c5ccccc5F)cccc43)c(Cl)cc2CNC(Cc2cccnc2)C(=O)O)c1 (some centres unmarked) [Example 3.094]
9,100 to 500 nM,O=C(O)c1cncc(COc2cc(O[C@H]3CCc4c(-c5ccccc5F)cccc43)c(Cl)cc2CN[C@@H](CO)C(=O)O)c1 [Example 3.029]
10,< 100 nM,N#Cc1cncc(COc2cc(O[C@H]3CCc4c(-c5ccccc5F)cccc43)c(Cl)cc2CN[C@@H](CO)C(=O)NCC(=O)O)c1 [Example 3.044]
11,< 100 nM,C[C@H](NC(=O)[C@H](C)NCc1cc(Cl)c(O[C@H]2CCc3c(-c4ccccc4F)cccc32)cc1OCc1cncc(C#N)c1)C(=O)O [Example 3.060]
12,< 100 nM,C[C@@](CO)(NCc1cc(Cl)c(O[C@@H]2CCc3c(-c4ccccc4F)cccc32)cc1OCc1cncc(C#N)c1)C(=O)O [Example 3.119]
13,100 to 500 nM,N#Cc1cncc(COc2cc(O[C@H]3CCc4c(-c5ccccc5F)cccc43)c(Cl)cc2CNCCCN2CCS(=O)(=O)CC2)c1 [Example 3.051]
14,< 100 nM,N#Cc1cncc(COc2cc(O[C@@H]3CCc4c(-c5ccccc5F)cccc43)c(Cl)cc2CN[C@@H](CO)C(=O)O)c1 [Example 3.120]
15,100 to 500 nM,Cn1nccc1-c1cncc(COc2cc(O[C@H]3CCc4c(-c5ccccc5F)cccc43)c(Cl)cc2CN[C@@H](CO)C(=O)O)c1 [Example 3.106]
16,100 to 500 nM,N#Cc1cncc(COc2cc(O[C@H]3CCc4c(-c5ccccc5F)cccc43)c(Cl)cc2CN[C@@H](Cc2c[nH]cn2)C(=O)O)c1 [Example 3.103]
17,500 to 20000 nM,O=C(O)[C@H](CO)NCc1cc(Cl)c(O[C@H]2CCc3c(-c4ccc5c(c4F)OCCO5)cccc32)cc1OCc1cc(Cl)cc(Cl)c1 [Example 3.014]
18,< 100 nM,N#Cc1cncc(COc2cc(O[C@H]3CCc4c(-c5ccccc5F)cccc43)c(Cl)cc2CN[C@@H]2CCC[C@H]2O)c1 [Example 3.018]
